Test results as given in the supplement of paper PMC11061612.

What was measured:
Test in all cases: combination Emax (second highest fraction inhibited in the dose matrix, 72 h); higher = more inhibition; extreme values may be limits of the assay
[1] = system: 697 (B-Lymphoblastic Leukemia)
In short: (§1)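 Cell lines in DMEM/F12 or RPMI with 10% FBS were plated in 1536-well plates, held 24 hours at 37°C, 5% CO2, then given two-drug dose matrices for 72 hours (DMSO typically 0.2%). Viability was read by CellTiter-Glo 2.0 luminescence and scaled as inhibition from 0 (vehicle wells) to 1 (blank wells). Combination Emax is the second-highest inhibition in the matrix; Bliss excess is observed combination effect minus expected EA + EB − EA·EB, EA and EB being single-agent effects.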

[2] = system: C3A (Hepatocellular Carcinoma)
In short: as §1

[3] = system: CAL-78 (Chondrosarcoma)
In short: as §1

[4] = system: DB (B-Cell Non-Hodgkin's Lymphoma)
In short: as §1

[5] = system: DOV13 (Ovarian Carcinoma)
In short: as §1

[6] = system: DSH1 (Bladder Carcinoma)
In short: as §1

[7] = system: EM-2 (Chronic Myelogenous Leukemia)
In short: as §1

[8] = system: J82 (Bladder Carcinoma)
In short: as §1

[9] = system: JiyoyeP-2003 (Burkitt's Lymphoma)
In short: as §1

[10] = system: KARPAS-620 (Plasma Cell Myeloma)
In short: as §1

[11] = system: LS-513 (Colorectal Carcinoma)
In short: as §1

[12] = system: LU-99A (Non-Small Cell Lung Carcinoma)
In short: as §1

[13] = system: MDA-MB-231 (Breast Carcinoma)
In short: as §1

[14] = system: MFH-ino (Other Solid Carcinomas)
In short: as §1

[15] = system: NCI-H1793 (Lung Adenocarcinoma)
In short: as §1

[16] = system: SK-N-FI (Neuroblastoma)
In short: as §1

[17] = system: SN12C (Kidney Carcinoma)
In short: as §1

[18] = system: SUIT-2 (Pancreatic Carcinoma)
In short: as §1

[19] = system: TE-5 (Esophageal Squamous Cell Carcinoma)
In short: as §1

[20] = system: NCI-H1299 (Non-Small Cell Lung Carcinoma)
In short: as §1

## CN(CCO)CC[C@H](CSc1ccccc1)Nc1ccc(S(=O)(=O)NC(=O)c2ccc(N3CCC([C@@H](O)c4ccccc4-c4ccc(Cl)cc4)CC3)cc2)cc1S(=O)(=O)C(F)(F)F [AZD4320] + C[C@@H]1COCCN1C2=NC(=NC(=C2)C3(CC3)[S@](=N)(=O)C)C4=C5C=CNC5=NC=C4 [AZD6738] (first compound max 1 µM, 7x7, partner max 10 µM)
[1]
  combination Emax: 1
[2]
  combination Emax: 0.52
[3]
  combination Emax: 0.861
[4]
  combination Emax: 0.959
[5]
  combination Emax: 0.974
[6]
  combination Emax: 0.94
[7]
  combination Emax: 0.988
[8]
  combination Emax: 0.524
[9]
  combination Emax: 0.972
[10]
  combination Emax: 1
[11]
  combination Emax: 0.821
[12]
  combination Emax: 0.838
[13]
  combination Emax: 0.849
[14]
  combination Emax: 0.51
[15]
  combination Emax: 0.498
[16]
  combination Emax: 0.765
[17]
  combination Emax: 0.328
[18]
  combination Emax: 0.522
[19]
  combination Emax: 0.77

## COc1nnc2ccc(N3CCC(c4ccc(OCCN5CCN(C)C(=O)[C@H]5C)cc4)CC3)nn12 [AZD5153] + CN(CC[C@H](CSC1=CC=CC=C1)NC2=C(C=C(C=C2)S(=O)(=O)NC(=O)C3=CC=C(C=C3)N4CCC(CC4)[C@H](C5=CC=CC=C5C6=CC=C(C=C6)Cl)O)S(=O)(=O)C(F)(F)F)CCO [AZD4320] (first compound max 1 µM, 7x7, partner max 1 µM)
[1]
  combination Emax: 1
[2]
  combination Emax: 0.489
[3]
  combination Emax: 0.8
[7]
  combination Emax: 0.988
[8]
  combination Emax: 0.397
[9]
  combination Emax: 0.893
[12]
  combination Emax: 0.937
[15]
  combination Emax: 0.323
[18]
  combination Emax: 0.306

## CCc1c2c(nc3ccc(O)cc13)-c1cc3c(c(=O)n1C2)COC(=O)[C@]3(O)CC [SN-38] + O=C(c1cc(Cc2n[nH]c(=O)c3ccccc23)ccc1F)N1CCN(C(=O)C2CC2)CC1 [Olaparib] (first compound max 0.3 µM, 7x7, partner max 10 µM)
[1]
  combination Emax: 1
[2]
  combination Emax: 0.665
[4]
  combination Emax: 0.96
[5]
  combination Emax: 0.939
[6]
  combination Emax: 0.915
[7]
  combination Emax: 1
[8]
  combination Emax: 0.861
[9]
  combination Emax: 0.947
[10]
  combination Emax: 0.25
[11]
  combination Emax: 0.665
[12]
  combination Emax: 0.649
[13]
  combination Emax: 0.681
[14]
  combination Emax: 0.652
[20]
  combination Emax: 0.544
[16]
  combination Emax: 0.518
[17]
  combination Emax: 0.738
[18]
  combination Emax: 0.728
[19]
  combination Emax: 0.758

## CC(=O)c1c(C)c2cnc(Nc3ccc(N4CCNCC4)cn3)nc2n(C2CCCC2)c1=O [Palbociclib] + CN(CC[C@H](CSC1=CC=CC=C1)NC2=C(C=C(C=C2)S(=O)(=O)NC(=O)C3=CC=C(C=C3)N4CCC(CC4)[C@H](C5=CC=CC=C5C6=CC=C(C=C6)Cl)O)S(=O)(=O)C(F)(F)F)CCO [AZD4320] (first compound max 10 µM, 7x7, partner max 1 µM)
[1]
  combination Emax: 1
[2]
  combination Emax: 0.639
[3]
  combination Emax: 0.709
[7]
  combination Emax: 0.95
[8]
  combination Emax: 0.22
[9]
  combination Emax: 0.795
[12]
  combination Emax: 0.297
[15]
  combination Emax: 0.337
[18]
  combination Emax: 0.354

## Cc1c2c(nn1C)CSCc1cc(n(C)n1)CSc1cc(c3ccccc3c1)OCCCc1c(C(=O)O)n(C)c3c-2c(Cl)ccc13 [AZD5991] + C=CCn1c(=O)c2cnc(Nc3ccc(N4CCN(C)CC4)cc3)nc2n1-c1cccc(C(C)(C)O)n1 [AZD1775] (first compound max 1 µM, partner max 1 µM)
[1]
  combination Emax: 1
[3]
  combination Emax: 0.853
[4]
  combination Emax: 0.999
[5]
  combination Emax: 0.829
[6]
  combination Emax: 0.791
[7]
  combination Emax: 0.983
[8]
  combination Emax: 0.314
[9]
  combination Emax: 0.987
[10]
  combination Emax: 1
[11]
  combination Emax: 0.871
[12]
  combination Emax: 0.428
[13]
  combination Emax: 0.418
[14]
  combination Emax: 0.31
[20]
  combination Emax: 0.83
[15]
  combination Emax: 0.488
[16]
  combination Emax: 0.744
[17]
  combination Emax: 0.358
[18]
  combination Emax: 0.555
[19]
  combination Emax: 0.536

## C[C@@H](c1ccc2nccn2c1)n1nnc2ncc(-c3cnn(C)c3)nc21 [Savolitinib] + CN(CC[C@H](CSC1=CC=CC=C1)NC2=C(C=C(C=C2)S(=O)(=O)NC(=O)C3=CC=C(C=C3)N4CCC(CC4)[C@H](C5=CC=CC=C5C6=CC=C(C=C6)Cl)O)S(=O)(=O)C(F)(F)F)CCO [AZD4320] (first compound max 1 µM, 7x7, partner max 1 µM)
[1]
  combination Emax: 1
[2]
  combination Emax: 0.183
[3]
  combination Emax: 0.457
[7]
  combination Emax: 0.971
[8]
  combination Emax: 0.604
[9]
  combination Emax: 0.439
[12]
  combination Emax: 0.245
[15]
  combination Emax: 0.168
[18]
  combination Emax: 0.241

## CN(CCO)CC[C@H](CSc1ccccc1)Nc1ccc(S(=O)(=O)NC(=O)c2ccc(N3CCC([C@@H](O)c4ccccc4-c4ccc(Cl)cc4)CC3)cc2)cc1S(=O)(=O)C(F)(F)F [AZD4320] + CN(C)CCCOc1ccc(-c2ccc3ncc4c(c3c2)n(C2CCOCC2)c(=O)n4C)cn1 [AZD0156] (first compound max 1 µM, 7x7, partner max 1 µM)
[1]
  combination Emax: 1
[2]
  combination Emax: 0.248
[4]
  combination Emax: 0.933
[5]
  combination Emax: 0.731
[6]
  combination Emax: 0.369
[7]
  combination Emax: 0.968
[8]
  combination Emax: 0.122
[9]
  combination Emax: 0.645
[10]
  combination Emax: 1
[11]
  combination Emax: 0.2
[12]
  combination Emax: 0.292
[13]
  combination Emax: 0.655
[14]
  combination Emax: 0.102
[20]
  combination Emax: 0.149
[15]
  combination Emax: 0.253
[16]
  combination Emax: 0.17
[17]
  combination Emax: 0.169
[18]
  combination Emax: 0.0928
[19]
  combination Emax: 0.43
